Source: patent US20220233512A1, “INHIBITING AN IMMUNE RESPONSE MEDIATED BY ONE OR MORE OF TLR2, RAGE, CCR5, CXCR4 AND CD4” (priority 2020, published 2022)

Tests used:
tau [1] = assay: Tau phosphorylation in human postmortem frontal cortex slices; type: cell-based; conditions: 1 or 10 nM compound
Method: As will be seen from examination of FIG. 3 and FIG. 4, the ratio of TLR2 to FLNA increased with administration of each of LTA-SA, PGN-SA and Ab42 at a statistically significant amount relative to the control (p<0.01). Those changes in expression of TLR2 relative to FLNA were each inhibited by the presence of the 1 or 10 nM Compound C0105 at a statistically significant amount relative to the control (p<0.01) and relative to the ligand used. See, FIG. 3B.
A slight inhibition (about 25% or less) of that enhanced tau phosphorylation was provided by contacting the cells with 1 or 10 nM Compound C0105. […] See, FIGS. 4A and 4B.
(§1) The levels of phosphorylated tau (pSer202tau, pThr231tau and pThr181tau) as well as total tau precipitated (loading controls) are assessed by Western blotting using specific antibodies directed against each of the phosphor-epitopes and the anti-tau, respectively.

tau [2] = assay: Tau phosphorylation in Ab42-treated organotypic frontocortical slice cultures; type: cell-based; conditions: Ab42-treated rat organotypic frontocortical slice cultures
Method: Rat brain slice organotypic culture methods were modified from those published previously. [Adamchik et al., Brain Res Brain Res Protoc 5:153-158 (2000).] FCX slices ([…]) were transferred to sterile, porous Millicell-CM inserts (0.4 mm). Each culture insert unit contained two brain slices and was placed into individual wells of a 12-well culture tray in 2 ml medium: 50% MEM with Earl's salts, 2 mM L-glutamine, 25% Earl's balanced salt solution, 6.5 g/l D-glucose, 20% fetal bovine serum (FBS), 5% horse serum, 25 mM HEPES buffer, pH 7.2, and […] streptomycin and […] penicillin. Cultures were kept in an incubator for 2 days at 36° C. in 5% CO2 to minimize the impact of injury from slice preparation.
On the day of experiment, medium was removed, the brain slices rinsed and incubated in 0.1% FBS-containing medium for 4 hours at 36° C. in 5% CO2. Brain slices were then cultured with 100 nM Ab42 and/or 0.1, 1 nM compound C0105 or compound C0114 in fresh 0.1% FBS-containing medium for 16 hours. […]
as §1

For `CN1CCC2(CC1)NCC(=O)N2Cc1ccccc1` [Compound C0105M], the “Inhibition of LTA-SA- or PGN-SA-enhanced tau phosphorylation” value (tau [1]) was ≤ 25%, the “Ab42-induced tau phosphorylation (in words)” value (tau [1]; 0.1 micromolar Ab42) was “statistically significant reduction” and the “Phosphorylation of tau at all three phosphorylation sites” value (tau [2]) was “dramatically reduces phosphorylation of tau”.
